Laboratory results as given in US7763267B2, “Versatile high load concentrate compositions for control of ecto- parasites” (Wyeth LLC, priority 2005, dated 2010).

System: biting lice
Experiment: Effect of metaflumizone body spray on biting lice of sheep
Format: in vivo
Conditions: 10 mg/kg as body spray (1500 ml/animal), vs untreated control lice/animal
Method: 12.59 grams of metaflumizone is added to dimethyl isosorbide using mild heating (approximately 40° C.). To this solution is added 109.92 grams Cremophor® EL (polyethoxylated castor oil, sold by Basf Aktiengesellschaft), with stirring, followed by q.s. 200 ml 1-methoxy-2-propyl acetate The resultant solution is stored until ready for use, whereupon it can be diluted with water for use as a spray (17 ml of concentrate diluted to 3500 ml with water), or with water for use as a feed/water additive (in approximately the same ratio).
This formulation was diluted with water to a metaflumizone concentration of 10 mg/kg bodyweight, and applied to sheep at 1500 ml/animal to test the effect of metaflumizone on biting lice

Measured: % Efficacy

N#Cc1ccc(CC(=NNC(=O)Nc2ccc(OC(F)(F)F)cc2)c2cccc(C(F)(F)F)c2)cc1 [metaflumizone, (E Z)-2-[2-(4-cyanophenyl)-1-[3-(trifluoromethyl)phenyl]ethylidene]-N-[4-(trifluoromethoxy)phenyl]hydrazinecarboxamide]
100%: 7 days after treatment | 14 days after treatment | 21 days after treatment | 28 days after treatment
